Reference: US4831026A, “2-oxa-isocephem compounds, compositions containing same and processes of using” (Otsuka Pharmaceutical Co., Ltd., priority 1985, dated 1989)
Like-named read-outs stand apart in the source and are kept apart here.

Tests used:
S. marcescens IFO-12648 = experiment: Antimicrobial activity test: MIC by the agar plate dilution method, S. marcescens IFO-12648; type: cell-based
Procedure: (§1) In order to investigate the in vitro activity of the under-mentioned compounds against various bacteria, the minimal inhibitory concentration (MIC) values were determined by the agar plate dilution method [see Chemotherapy, 22, 1126-1128 (1974)].
(§2) Each test inoculum was adjusted to 1×10^6 cells/ml (O.D., 600 mμ: 0.07-0.16).

E. coli No. 29 = experiment: Antimicrobial activity test: MIC by the agar plate dilution method, E. coli No. 29; type: cell-based
Procedure: as §1, §2

P. aeruginosa NCTC-10490 = experiment: Antimicrobial activity test: MIC by the agar plate dilution method, P. aeruginosa NCTC-10490; type: cell-based; details: inoculum 1×10^6 cells/ml
Procedure: as §1, §2

P. mirabilis 1287 = experiment: Antimicrobial activity test: MIC by the agar plate dilution method, P. mirabilis 1287; type: cell-based
Procedure: as §1, §2

K. pneumoniae NCTC-9632 = experiment: Antimicrobial activity test: MIC by the agar plate dilution method, K. pneumoniae NCTC-9632; type: cell-based; details: inoculum 1×10^6 cells/ml
Procedure: as §1, §2

M. morganii ATCC-25830 = experiment: Antimicrobial activity test: MIC by the agar plate dilution method, M. morganii ATCC-25830; type: cell-based; details: inoculum 1×10^6 cells/ml
Procedure: as §1, §2

S. aureus FDA-209-p = experiment: Antimicrobial activity test: MIC by the agar plate dilution method, S. aureus FDA-209-p; type: cell-based, Staphylococcus aureus; details: inoculum 1×10^6 cells/ml
Procedure: as §1, §2

[1] = E. coli No. 29, inoculum 1×10^6 cells/ml
[2] = P. mirabilis 1287, inoculum 1×10^6 cells/ml
[3] = S. marcescens IFO-12648, inoculum 1×10^6 cells/ml

Row | Substance | MIC (S. marcescens IFO-12648) [µg/mL] | MIC (E. coli No. 29; [1]) [µg/mL] | MIC (P. aeruginosa NCTC-10490) [µg/mL] | MIC (P. mirabilis 1287; [2]) [µg/mL] | MIC (K. pneumoniae NCTC-9632) [µg/mL] | MIC (M. morganii ATCC-25830) [µg/mL] | MIC (S. marcescens IFO-12648; [3]) [µg/mL] | MIC (S. aureus FDA-209-p) [µg/mL] | MIC (E. coli No. 29) [µg/mL] | MIC (P. mirabilis 1287) [µg/mL]
1 | (6S,7S)-7-[2-(2-Aminothiazol-4-yl)-2-cyclopropylmethyloxyiminoacetamido]-3- [(1,2,3-thiadiazol-5-yl)thiomethyl]-Δ^3 -O-2-isocephem-4-carboxylic acid (syn-isomer) [Example 65] | 0.78 | 0.1 | 0.78 | 0.2 | 0.39 | 0.05 |  |  |  | 
2 | Benzhydryl 7-[2-(2-tritylaminothiazol-4-yl)-2-cyanomethyloxyiminoacetamido]-3-[(1,2,3-thiadiazol-5-yl)thiomethyl]-Δ^3 -O-2-isocephem-4-carboxylate (syn-isomer) [Example 52] | 0.78 | 0.1 | 0.39 | 0.1 | 0.2 | 0.05 |  |  |  | 
3 | Benzyl 7-[2-(2-chloroacetamidothiazol-4-yl)-2-(tert-butoxycarbonylmethoxyimino)acetamido]-3-[(1,3,4-thiadiazol-2-yl)thiomethyl]-Δ^3 -O-2-isocephem-4carboxylate (syn-isomer) [Example 2] |  | 0.05 | 3.13 | ≤ 0.025 | 0.2 | ≤ 0.025 | 0.2 | 0.78 |  | 
4 | 7-2-(Thiazol-4-yl)-2-tert-butoxycarbonylmethoxyiminoacetamido]-Δ^3 -O-2-isocephem-4-carboxylic acid (syn-isomer) [Example 19] |  | ≤ 0.025 | 3.13 | ≤ 0.025 | ≤ 0.025 | ≤ 0.025 | 0.05 | 0.39 |  | 
5 | 7-[2-(2-Chloroacetamidothiazol-4-yl)-2-methoxyiminoacetamido]-3-[(1,3,4-thiadiazol-2-yl)thiomethyl]-Δ^3 -O-2-isocephem-4-carboxylic acid (syn-isomer) [Example 11] |  | 0.05 | 6.25 | ≤ 0.025 | 0.2 | ≤ 0.025 | 0.2 |  |  | 
6 | Benzyl 7-[2-(2-chloroacetamidothiazol-4-yl)-2-methoxyiminoacetamido]-3-[(1,3,4-thiadiazol-2-yl)thiomethyl]-Δ^3 -O-2-isocephem-4-carboxylate (syn-isomer) [Example 10] | 0.39 |  |  | 0.1 | 0.39 | 0.2 |  | 0.39 | 0.39 | 
7 | Benzhydryl 7-[2-(2-formamidothiazol-4-yl)-2-(2-chloroethoxy)iminoacetamido-]-3-[(1,3,4-thiadiazol-2-yl)thiomethyl]-Δ^3 -O-2-isocephem-4-carboxylate (syn-isomer) [Example 32] | 0.78 | 0.05 |  | 0.05 | 0.1 | 0.1 |  | 0.39 |  | 
8 | 7-[2-(2-Aminothiazol-4-yl)-2-(2-chloroethoxy)iminoacetamido]-3-[(1,3,4-thiadiazol-2-yl)thiomethyl]-Δ^3 -O-2-isocephem-4-carboxylic acid (syn-isomer) [No. 9] | 0.78 | 0.2 | 0.78 |  | 0.39 | 0.78 |  | 0.05 |  | 0.39
9 | Benzhydryl 7-[2-(2-tritylaminothiazol-4-yl)-2-[(3-butenyl)oxyimino]acetamido]-3-[(1,3,4-thiadiazol-2-yl)thiomethyl]-Δ^3 -O-2-isocephem-4-carboxylate (syn-isomer) [Example 39] | 0.78 | 0.2 | 1.56 | 0.2 | 0.2 | 0.39 |  |  |  | 
10 | Benzhydryl (6S,7S)-7-[2-(2-tritylaminothiazol-4-yl)- 2-cyanomethoxyiminoacetamido]-3-[(1,3,4-thiadiazol-2-yl)thiomethyl]-Δ^3 -O-2-isocephem-4-carboxylate (syn-isomer) [Example 61] | 0.78 | 0.05 | 3.13 | ≤ 0.025 | 0.05 | ≤ 0.025 |  |  |  | 
11 | Benzyl 7-[2-(2-chloroacetamidothiazol-4-yl)-2allyloxyiminoacetamido]-3-[(1,3,4-thiadiazol-2-yl)thiomethyl]-Δ^3 -O-2-isocephem-4-carboxylate (syn-isomer) [Example 14] |  | 0.05 | 3.13 | ≤ 0.025 | 0.1 |  | 0.1 |  |  | 
12 | Benzhydryl (6S,7S)-7-[2-(2-tritylaminothiazol-4-yl)-2-methoxyiminoacetamido]-3-[(1,3,4-thiadiazol-2-yl)thiomethyl]-Δ^3 -O-2-isocephem-4-carboxylate (syn-isomer) [Example 58] | 0.39 | ≤ 0.025 | 25 | ≤ 0.025 | ≤ 0.025 |  |  | 0.39 |  | 
13 | Benzyl 7-[2-(2-chloroacetamidothiazol-4-yl)-2-methoxyiminoacetamido]-3-[(carbamoyloxy)methyl]-Δ^3 -O-2-isocephem-4-carboxylate (syn-isomer) [Example 1] |  | ≤ 0.025 | 3.13 | ≤ 0.025 |  |  | 0.1 |  |  | 
14 | Benzhydryl 7-[2-(2-tritylaminothiazol-4-yl)-2 -methoxyiminoacetamido]-3-[(1,2,3-thiadiazol-5-yl)thiomethyl]-Δ^3 -O-2-isocephem-4-carboxylate (syn-isomer) [Example 51] |  | ≤ 0.025 | 0.78 | ≤ 0.025 | ≤ 0.025 | ≤ 0.025 | 0.1 |  |  | 
15 | Benzhydryl 7-[2-(2-tritylaminothiazol-4-yl)-2-allyloxyiminoacetamido]-3-[(1,3,4-thiadiazol-2-yl)thiomethyl]-Δ^3 -O-2-isocephem-4-carboxylate (syn-isomer) [Example 43] |  |  | 50 | 0.1 | 0.78 | 1.56 | 6.25 |  | 0.39 | 
16 | 7-[2-(2-Aminothiazol-4-yl)-2-[(pyrazol-3-yl)methoxyiminoacetamido]-3-[(1,3,4-thiadiazol-2-yl)thiomethyl]-Δ^3 -O-2-isocephem-4-carboxylic acid dihydrochloride (syn-isomer) [Example 24] | 0.39 |  | 12.5 | ≤ 0.025 | 0.39 | 0.1 |  |  | 0.39 | 
17 | 7-[2-(2-Aminothiazol-4-yl)-2-(2-fluoroethoxy)iminoacetamido]-3-[(1,3,4-thiadiazol-2-yl)thiomethyl-]-Δ^3 -O-2-isocephem-4-carboxylic acid trifluoroacetate (syn-isomer) [Example 49] |  | ≤ 0.025 | 1.56 | ≤ 0.025 | ≤ 0.025 | ≤ 0.025 | 0.1 |  |  | 
18 | Benzhydryl (6S,7S)-7-[2-(2-aminothiazol-4-yl)-2-cyclopropylmethyloxyiminoacetamido]-3-[(1,2,3-thiadiazol-5-yl)thiomethyl]-Δ^3 -O-2-isocephem-4-carboxylate (syn-isomer) [Example 64] |  | ≤ 0.025 | 1.56 | ≤ 0.025 | ≤ 0.025 | ≤ 0.025 | 0.05 |  |  | 
19 | Benzhydryl 7-[2-(2-tritylaminothiazol-4-yl)-2-cyclopropylmethyloxyiminoacetamido]-3-[(1,2,3-thiadiazol-5-yl)thiomethyl]-Δ^3 -O-2-isocephem-4-carboxylate (syn-isomer) [Example 53] | 0.78 | 0.05 | 0.39 | 0.1 |  | 0.05 |  |  |  | 
20 | Benzhydryl (6S,7S)-7-[2-(2-tritylaminothiazol-4-yl)-2-cyclopropylmethyloxyiminoacetamido]-3-[(1,2,3-thiadiazol-5-yl)thiomethyl]-Δ^3 -O-2-isocephem-4-carboxylate (syn-isomer) [Example 63] |  | ≤ 0.025 | 0.78 | ≤ 0.025 | ≤ 0.025 |  | 0.05 |  |  | 
21 | Benzhydryl 7-[2-(2-tritylaminothiazol-4-yl)-2-benzyloxyiminoacetamido]-3-[(1,3,4-thiadiazol-2-yl)thiomethyl]-Δ^3 -O-2-isocephem-4-carboxylate (syn-isomer) [Example 47] |  | ≤ 0.025 | 3.13 | ≤ 0.025 | ≤ 0.025 | ≤ 0.025 | 0.1 |  |  | 
